Patent US20260130404A1, “SWEETNESS AND TASTE IMPROVEMENT OF NON-SUCROSE SWEETENERS WITH D-SUGARS OR L-SUGARS” (The Coca-Cola Company, priority 2022, published 2026)
Like-named read-outs stand apart in the source and are kept apart here.

Tests used:
taste panelists = conditions: background statement; cited from earlier work
panelists [1] = assay: Sensory panel paired comparison of lemon-lime beverages with Siamenoside I; type: in vivo; conditions: 2% in a lemon-lime matrix containing 600 ppm Siamenoside I
Description: (§1) The ingredients were dissolved in filtered water to constitute a syrup, then the final beverage was made by weighing the appropriate syrup amount and adding carbonated water using a ratio of 1-part syrup+5.4 parts carbonated water to target a carbonation of 3.8 volumes of CO2. Final beverages were filled in 300 ml glass bottles and served cold (4° C.). A sensory panel was provided with the D-glucose (@1%) containing beverage of Table 4 and the control shown therein. The beverages were evaluated blindly by six or seven panelists. Samples were coded and randomly presented to the panelists. Panelists were instructed to eat an unsalted cracker and rinse the mouth with water before and in between the samples. For each sample, panelists were instructed to taste, then write down their evaluation comments in paired comparison test between control and prototypes. Panelists ranked higher the sample that had higher sweet intensity, fast sweet onset, more sugar like mouthfeel, less sweet linger, less bitter and overall best tasting. […] Samples were coded and randomly presented to the panelists. Panelists were instructed to eat an unsalted cracker and rinse the mouth with water before and in between the samples. […]

human sense of taste [2] = conditions: cited from earlier work
panelists [3] = assay: Sensory panel paired comparison of lemon-lime beverages with Reb M; type: in vivo; conditions: 1% in a lemon-lime matrix containing 475 ppm rebaudioside M
Description: as §1, with “Table 1” for “Table 4”

human sense of taste [4] = conditions: cited from earlier work; remark: listed apart in the source
[5] = lowest known concentration perceivable as sweet, ppm equivalent of the mM value
[6] = lowest known concentration perceivable by the human sense of taste as sweet

| Structure (SMILES) | maximal sucrose equivalence (taste panelists) | taste modulation (sensory testing, FIG. 3 and 4) (panelists [1]) | detection threshold concentration (human sense of taste [2]; lowest known concentration perceivable by the human sense of taste) | detection threshold concentration (human sense of taste [2]; lowest known concentration perceivable, ppm equivalent of the mM value) | taste modulation (sensory testing, FIG. 1 and 2) (panelists [3]) | sweetness recognition threshold concentration (human sense of taste [4]; [5]) | sweetness recognition threshold concentration (human sense of taste [4]; [6]) |
| --- | --- | --- | --- | --- | --- | --- | --- |
| C=C1C[C@@]23CC[C@H]4[C@@](C)(CCC[C@@]4(C)C(=O)O[C@@H]4O[C@H](CO)[C@@H](O)[C@H](O)[C@H]4O)[C@@H]2CC[C@]1(O[C@@H]1O[C@H](CO)[C@@H](O)[C@H](O[C@@H]2O[C@H](CO)[C@@H](O)[C@H](O)[C@H]2O)[C@H]1O[C@@H]1O[C@H](CO)[C@@H](O)[C@H](O)[C@H]1O)C3 [rebaudioside A] | ≤ 10% | – | – | – | – | – | – |
| O=C[C@H](O)[C@@H](O)[C@H](O)[C@H](O)CO [D-glucose] | – | effective taste modulator | about 13 mM | about 2342 ppm | effective taste modulator | about 7386 ppm | about 41±6 mM |
| C=C1C[C@@]23CC[C@H]4[C@@](C)(CCC[C@@]4(C)C(=O)O[C@@H]4O[C@H](CO)[C@@H](O)[C@H](O[C@@H]5O[C@H](CO)[C@@H](O)[C@H](O)[C@H]5O)[C@H]4O[C@@H]4O[C@H](CO)[C@@H](O)[C@H](O)[C@H]4O)[C@@H]2CC[C@]1(O[C@@H]1O[C@H](CO)[C@@H](O)[C@H](O[C@@H]2O[C@H](CO)[C@@H](O)[C@H](O)[C@H]2O)[C@H]1O[C@@H]1O[C@H](CO)[C@@H](O)[C@H](O)[C@H]1O)C3 [rebaudioside M] | greater than 10% | – | – | – | – | – | – |
| O=C[C@@H](O)[C@H](O)[C@@H](O)[C@@H](O)CO [L-glucose] | – | effective taste modulator | – | – | effective taste modulator | about 5765 ppm | about 32±7 mM |
